The source of these data is EP3628664A1, “IRREVERSIBLE INHIBITORS OF KRAS G12C MUTANT” (Max-Planck-Gesellschaft zur Förderung der Wissenschaften …, priority 2018, dated 2020).

In data set [1] the target is T1, KRas G12C (Homo sapiens, UniProt P01116, G12C). The experiment in a line: Tethering assay: covalent adduct formation determined by MALDI. The format is binding. The following applies: 20 mM HEPES, pH 7.5, 150 mM NaCl, room temperature; for Covalent adduct formation 30 min: after 30 min; for Covalent adduct formation 24h: after 24h; for Covalent adduct formation 48h: after 48h. The procedure: Protein was incubated with the compounds in 20 mM HEPES, pH 7.5, 150 mM NaCl at room temperature for the specific times. For MALDI experiments, a saturated solution of sinapic acid (Aldrich) in H2O (0.1% TFA) / ACN (2:1) was used as matrix. 1 µL of the samples was mixed with 5 µL of matrix, and 1 µL of this mixture was placed on an MTP 384 ground steel target plate and dried in air. Mass spectra were obtained over the m/z range 17.000-21.000 using a Bruker UltrafleXtreme TOF/TOF mass spectrometer. […]

The target of data set [2] is T1, KRas G12C. In words: Competitive LC-MS experiment with KRas G12C in the presence of glutathione. The format is binding. The procedure: In competitive experiments it was shown that the inventive compounds bind selectively to the KRas G12C mutant in the presence of glutathione (GSH).
Cell indices ±s.d. were measured in technical triplicates and biological duplicates. Staurosporin was used as control compound.

Data set [3] in a line: LC-MS stability of compound with glutathione in PBS buffer at 37 °C. The format is physicochemical.
Data set [4] in a line: Hydrolysis stability in HEPES buffer (LC-MS). The following applies: HEPES buffer (pH 7.5), 37 °C, 24 hours. The class given is physicochemical. How it is done: Compound 4 was dissolved in HEPES (4-(2-hydroxyethyl)-1-piperazineethanesulfonic acid) buffer (pH 7.5) at 37 °C for 24 hours.

In the case of `CCC(C)(C)c1ccc(O)c(NCC(=O)N2CCN(C(=O)c3cnc(Cl)nc3)CC2)c1` [Compound 2, 1-(4-(2-chloropyrimidine-5-carbonyl)piperazin-1-yl)-2-((2-hydroxy-5-(tert-pentyl)phenyl)amino)ethan-1-one], at KRas G12C [1], the “Covalent adduct formation 30 min” value is “+++ (covalent labeling > 90%)”, the “Covalent adduct formation 24h” value is “+++ (covalent labeling > 90%)” and the “Covalent adduct formation 48h” value is given as “+++ (covalent labeling > 90%)”.

As to `CC(C)(C)c1ccc(O)c(NCC(=O)N2CCN(C(=O)c3cnc(Cl)nc3)CC2)c1` [Compound 1, 2-((5-(tert-butyl)-2-hydroxyphenyl)amino)-1-(4-(2-chloropyrimidine-5-carbonyl)piperazin-1-yl)ethan-1-one], on KRas G12C [1], the “Covalent adduct formation 30 min” value was “+++ (covalent labeling > 90%)”, the “Covalent adduct formation 24h” value was “+++ (covalent labeling > 90%)” and the “Covalent adduct formation 48h” value is recorded as “+++ (covalent labeling > 90%)”.

For the molecule `CC(C)(C)c1cc(NCC(=O)N2CCN(C(=O)c3cnc(Cl)cn3)CC2)c(O)cc1Cl` [Compound 8, 2-((5-(tert-butyl)-4-chloro-2-hydroxyphenyl)amino)-1-(4-(5-chloropyrazine-2-carbonyl)piperazin-1-yl)ethan-1-one], on KRas G12C [1], the “Covalent adduct formation 30 min” value is “+ (5 < covalent labeling ≤ 50)”, the “Covalent adduct formation 24h” value is “++ (50 < covalent labeling ≤ 90)” and the “Covalent adduct formation 48h” value is recorded as “+++ (covalent labeling > 90%)”.

Consider `CC1(c2cc(NCC(=O)N3CCN(C(=O)c4cnc(Cl)nc4)CC3)c(O)cc2Cl)CC1` [Compound 5, 2-((4-chloro-2-hydroxy-5-(1-methylcyclopropyl)phenyl)amino)-1-(4-(2-chloropyrimidine-5-carbonyl)piperazin-1-yl)ethan-1-one], for which, on KRas G12C [1], the “Covalent adduct formation 30 min” value is on record as “+++ (covalent labeling > 90%)”, the “Covalent adduct formation 24h” value is “+++ (covalent labeling > 90%)” and the “Covalent adduct formation 48h” value is “+++ (covalent labeling > 90%)”.

Consider `Cc1cc(C)c(NCC(=O)N2CCN(C(=O)c3cnc(Cl)nc3)CC2)c(C)c1` [Compound 9, 1-(4-(2-chloropyrimidine-5-carbonyl)piperazin-1-yl)-2-(mesitylamino)ethan-1-one], for which, on KRas G12C [1], the “Covalent adduct formation 30 min” value is recorded as “+++ (covalent labeling > 90%)”, the “Covalent adduct formation 24h” value is given as “+++ (covalent labeling > 90%)” and the “Covalent adduct formation 48h” value is “+++ (covalent labeling > 90%)”.

As for `CCC(C)(C)c1cc(NCC(=O)N2CCN(S(=O)(=O)c3cnc(Cl)nc3)CC2)c(O)cc1Cl` [Compound 7, 2-((4-chloro-2-hydroxy-5-(tert-pentyl)phenyl)amino)-1-(4-((2-chloropyrimidin-5-yl)sulfonyl)piperazin-1-yl)ethan-1-one], on KRas G12C [1], the “Covalent adduct formation 30 min” value is “+++ (covalent labeling > 90%)”, the “Covalent adduct formation 24h” value is reported as “+++ (covalent labeling > 90%)” and the “Covalent adduct formation 48h” value is listed as “+++ (covalent labeling > 90%)”.

For the molecule `CC(C)(C)c1cc(NCC(=O)N2CCN(C(=O)c3cnc(Cl)nc3)CC2)c(O)cc1Cl` [Compound 3, 2-((5-(tert-butyl)-4-chloro-2-hydroxyphenyl)amino)-1-(4-(2-chloropyrimidine-5-carbonyl)piperazin-1-yl)ethan-1-one], on KRas G12C [1], the “Covalent adduct formation 30 min” value is listed as “+++ (covalent labeling > 90%)”, the “Covalent adduct formation 24h” value was “+++ (covalent labeling > 90%)” and the “Covalent adduct formation 48h” value is reported as “+++ (covalent labeling > 90%)”.

Regarding `CCC(C)(C)c1cc(NCC(=O)N2CCN(C(=O)c3ccnc(Cl)n3)CC2)c(O)cc1Cl` [Compound 6, 2-((4-chloro-2-hydroxy-5-(tert-pentyl)phenyl)amino)-1-(4-(2-chloropyrimidine-4-carbonyl)piperazin-1-yl)ethan-1-one], at KRas G12C [1], the “Covalent adduct formation 30 min” value is recorded as “+ (5 < covalent labeling ≤ 50)”, the “Covalent adduct formation 24h” value is “++ (50 < covalent labeling ≤ 90)” and the “Covalent adduct formation 48h” value is listed as “+++ (covalent labeling > 90%)”.

Turning to `CCC(C)(C)c1cc(NCC(=O)N2CCN(C(=O)c3cnc(Cl)nc3)CC2)c(O)cc1Cl` [Compound 4, 2-((4-chloro-2-hydroxy-5-(tert-pentyl)phenyl)amino)-1-(4-(2-chloropyrimidine-5-carbonyl)piperazin-1-yl)ethan-1-one], the glutathione-4 adduct formation result at KRas G12C [2] (KRas G12C, compound 4 and glutathione, up to 5 hours) is “No glutathione-4 adduct formation could be observed”. Also, the “covalent adduct formation with KRas G12C” value at KRas G12C [2] (in the presence of glutathione, after 1 hour) is “Nearly complete”. The “incubation time after which compound remains unreacted” value in data set [3] (in the presence of glutathione) is listed as “more than 18 hours”. For the same molecule, the “formation of the glutathione-4 covalent adduct” value in data set [3] (mixture with glutathione) is reported as “occurs slowly”. Besides, the stability entry in data set [3] (mixture with glutathione, up to 24 hours) is listed as “good stability”. Further, in data set [3] (pH 7.5, with glutathione, after 18 hours incubation time, read-out: compound remains unreacted), the remaining at 18 h was ~50%. For the same molecule, in data set [4], the stability against hydrolysis entry is listed as “stable against hydrolysis”. Besides, at KRas G12C [1], the “Covalent adduct formation 30 min” value is “+++ (covalent labeling > 90%)”, the “Covalent adduct formation 24h” value is listed as “+++ (covalent labeling > 90%)” and the “Covalent adduct formation 48h” value is “+++ (covalent labeling > 90%)”.
